Our source for the IC50 values is patent US9539260B2, “Dihydro-benzo-oxazine and dihydro-pyrido-oxazine derivatives” (Novartis AG, priority 2012, dated 2017).

What is called pIC50 is −log10 of the IC50, conventionally taken in molar units. High values mean a low IC50, low ones a high IC50.

pIC50: −log10 of the molar value.

The target in experiment [1] is PI3K delta (Homo sapiens (Human), UniProt O00329). Put plainly: Enzymatic PI3K delta isoform inhibition (lipid kinase activity, Kinase-Glo luminescence). In kind it is biochemical. Conditions: Enzymatic assay. The procedure: (§1) 1.1 Test of Lipid Kinase Activity […]
(§2) In a more preferred assay, the kinase reaction is performed in a final volume of 10 μl per well of a low volume non-binding CORNING, 384 well black plate (Cat. No. #3676). The final concentrations of ATP and phosphatidyl inositol (PI) in the assay are 1 μM and 10 μg/mL, respectively. The reaction is started by the addition of ATP.
(§3) The components of the assay are added per well as follows:
(§4) The Z′ value is a universal measurement of the robustness of an assay. A Z′ between 0.5 and 1.0 is considered an excellent assay.
(§5) IC50 is determined by a four parameter curve fitting routine that comes along with “excel fit”. A four parameter logistic equation is used to calculate IC50 values (IDBS XLfit) of the percentage inhibition of each compound at 8 concentrations (usually 10, 3.0, 1.0, 0.3, 0.1, 0.030, 0.010 and 0.003 μM). Alternatively, IC50 values are calculated using idbsXLfit model 204, which is a 4 parameter logistic model.
(§6) Yet alternatively, for an ATP depletion assay, compounds of the formula I to be tested are dissolved in DMSO and directly distributed into a white 384-well plate at 0.5 μl per well. To start the reaction, 10 μl of 10 nM PI3 kinase and 5 μg/mL 1-alpha-phosphatidylinositol (PI) are added into each well followed by 10 μl of 2 μM ATP. The reaction is performed until approx 50% of the ATP is depleted, and then stopped by the addition of 20 μl of Kinase-Glo solution (Promega Corp., Madison, Wis., USA). The stopped reaction is incubated for 5 minutes and the remaining ATP is then detected via luminescence. IC50 values are then determined.

Experiment [2] concerns the target PI3K alpha (Homo sapiens (Human), UniProt P42336). The experiment in a line: Enzymatic PI3K alpha isoform inhibition (lipid kinase activity, Kinase-Glo luminescence). It is filed as biochemical. Particulars: Enzymatic assay. The procedure: as §1, §2, §3, §4, §5, §6

Sequence of PI3K delta (O00329 other isoform, or with tags, fused parts or gaps linker GGGGGG): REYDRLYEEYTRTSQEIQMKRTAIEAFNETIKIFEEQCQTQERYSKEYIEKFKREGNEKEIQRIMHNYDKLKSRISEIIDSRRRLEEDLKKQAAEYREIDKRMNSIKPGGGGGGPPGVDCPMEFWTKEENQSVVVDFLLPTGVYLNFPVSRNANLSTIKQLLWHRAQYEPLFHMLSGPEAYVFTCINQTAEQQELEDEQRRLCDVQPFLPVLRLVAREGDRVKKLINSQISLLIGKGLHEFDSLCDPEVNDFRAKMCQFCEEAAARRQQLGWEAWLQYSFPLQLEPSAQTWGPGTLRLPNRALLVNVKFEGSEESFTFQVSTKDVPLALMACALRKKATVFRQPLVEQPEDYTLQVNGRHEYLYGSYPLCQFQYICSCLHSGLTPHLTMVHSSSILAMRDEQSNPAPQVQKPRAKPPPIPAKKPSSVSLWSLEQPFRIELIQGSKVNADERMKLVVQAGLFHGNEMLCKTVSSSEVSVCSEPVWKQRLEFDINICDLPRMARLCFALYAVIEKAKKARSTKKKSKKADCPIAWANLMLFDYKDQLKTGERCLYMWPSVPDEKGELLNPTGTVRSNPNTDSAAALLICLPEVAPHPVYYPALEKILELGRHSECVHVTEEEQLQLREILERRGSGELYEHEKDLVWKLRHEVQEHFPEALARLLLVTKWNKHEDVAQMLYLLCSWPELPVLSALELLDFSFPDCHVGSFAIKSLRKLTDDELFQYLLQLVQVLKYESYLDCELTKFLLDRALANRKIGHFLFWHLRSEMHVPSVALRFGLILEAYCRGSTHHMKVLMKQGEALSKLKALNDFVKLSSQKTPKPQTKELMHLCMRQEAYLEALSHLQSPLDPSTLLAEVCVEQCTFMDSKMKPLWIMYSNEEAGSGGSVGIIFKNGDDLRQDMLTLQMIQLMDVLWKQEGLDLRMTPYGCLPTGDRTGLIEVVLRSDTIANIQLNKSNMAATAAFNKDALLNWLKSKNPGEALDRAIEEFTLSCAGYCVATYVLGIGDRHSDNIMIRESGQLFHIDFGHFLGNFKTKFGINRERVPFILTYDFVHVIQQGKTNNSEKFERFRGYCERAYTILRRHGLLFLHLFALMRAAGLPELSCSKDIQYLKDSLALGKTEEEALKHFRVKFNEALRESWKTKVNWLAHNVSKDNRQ
Sequence of PI3K alpha (P42336 other isoform, or with tags, fused parts or gaps): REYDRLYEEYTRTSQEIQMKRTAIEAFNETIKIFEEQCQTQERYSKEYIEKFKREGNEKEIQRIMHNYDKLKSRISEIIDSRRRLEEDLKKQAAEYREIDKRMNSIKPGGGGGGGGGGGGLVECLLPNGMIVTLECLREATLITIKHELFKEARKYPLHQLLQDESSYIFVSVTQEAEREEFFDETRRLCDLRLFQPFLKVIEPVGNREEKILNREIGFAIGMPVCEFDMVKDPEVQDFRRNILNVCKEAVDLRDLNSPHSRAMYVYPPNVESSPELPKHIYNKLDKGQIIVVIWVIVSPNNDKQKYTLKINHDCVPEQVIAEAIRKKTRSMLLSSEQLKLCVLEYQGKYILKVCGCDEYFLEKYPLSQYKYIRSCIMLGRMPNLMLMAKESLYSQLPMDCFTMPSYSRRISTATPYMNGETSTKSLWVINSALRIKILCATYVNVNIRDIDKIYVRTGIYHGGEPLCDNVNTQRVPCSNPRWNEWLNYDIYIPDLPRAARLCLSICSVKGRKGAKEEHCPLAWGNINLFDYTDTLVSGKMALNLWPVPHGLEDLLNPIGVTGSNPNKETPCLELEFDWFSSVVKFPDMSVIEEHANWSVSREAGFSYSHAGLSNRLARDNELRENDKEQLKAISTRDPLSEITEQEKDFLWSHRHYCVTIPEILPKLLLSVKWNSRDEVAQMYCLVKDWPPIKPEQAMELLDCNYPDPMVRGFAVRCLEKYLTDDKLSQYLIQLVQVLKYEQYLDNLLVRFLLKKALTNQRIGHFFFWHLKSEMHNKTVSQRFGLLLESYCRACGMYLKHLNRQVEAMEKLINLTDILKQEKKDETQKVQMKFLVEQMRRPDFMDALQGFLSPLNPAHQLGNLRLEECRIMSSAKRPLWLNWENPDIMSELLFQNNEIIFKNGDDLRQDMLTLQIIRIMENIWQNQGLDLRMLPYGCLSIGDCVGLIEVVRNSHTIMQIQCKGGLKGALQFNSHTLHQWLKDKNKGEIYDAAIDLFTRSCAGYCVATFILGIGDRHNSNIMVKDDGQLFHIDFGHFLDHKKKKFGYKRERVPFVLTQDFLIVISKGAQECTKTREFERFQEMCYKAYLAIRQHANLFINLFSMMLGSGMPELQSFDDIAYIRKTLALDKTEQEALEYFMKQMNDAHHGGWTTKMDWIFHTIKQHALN

In the case of `COc1ncc(N2CCOc3ccc(O[C@H]4CCN(C(=O)C5CCS(=O)(=O)C5)C4)cc32)cc1C` (single isomer, unassigned) [Example B27, (1,1-Dioxo-tetrahydro-1lambda*6*-thiophen-3-yl)-{(S)-3-[4-(6-methoxy-5-methyl-pyridin-3-yl)-3,4-dihydro-2H-benzo[1,4]oxazin-6-yloxy]-pyrrolidin-1-yl}-methanone], the negative logarithm of the IC50 (pIC50) was 7.26 in experiment [1] and 5.60 in experiment [2].

As to `COc1ncc(N2CCOc3ccc(O[C@H]4CCN(C(=O)C5CCS(=O)(=O)C5)C4)cc32)cc1C` (single isomer, unassigned) [Example B28, (1,1-Dioxo-tetrahydro-1lambda*6*-thiophen-3-yl)-{(S)-3-[4-(6-methoxy-5-methyl-pyridin-3-yl)-3,4-dihydro-2H-benzo[1,4]oxazin-6-yloxy]-pyrrolidin-1-yl}-methanone], the negative-log IC50 (pIC50) in experiment [1] was 7.92; in experiment [2] it was 6.10.

Take `COc1ncc(N2CCOc3ccc(O[C@H]4CCN(C(=O)C5CCOC5)C4)cc32)cc1C#N` (single isomer, unassigned) [Example D28]: the pIC50 in experiment [1] was 8.30; in experiment [2], 6.39.

On to `COc1ncc(N2CCOc3ccc(O[C@H]4CCN(C(=O)C5CCOC5)C4)cc32)cc1C#N` (single isomer, unassigned) [Example D29], for which the pIC50 in experiment [1] was 8.52; in experiment [2], 6.27.

As for `COc1ncc(N2CCOc3ccc(O[C@H]4CCN(C(=O)C5CCC(OC)CC5)C4)cc32)cc1C#N` (single isomer, unassigned) [Example D35], the negative logarithm of the IC50 (pIC50) in experiment [1] was above 8.52; in experiment [2], 6.38.

`COc1ncc(N2CCOc3ccc(O[C@H]4CCN(C(=O)C5CCC(OC)CC5)C4)cc32)cc1C#N` (single isomer, unassigned) [Example D36] had a negative logarithm of the IC50 (pIC50) in experiment [2] of 6.46.

Consider `Cc1cc(N2CCOc3ccc(O[C@H]4CCN(C(=O)C5COCCO5)C4)cc32)cnc1S(C)(=O)=O` (single isomer, unassigned) [Example H3], for which the negative-log IC50 (pIC50) was 8.10 in experiment [1] and 6.25 in experiment [2].

As for `Cc1cc(N2CCOc3ccc(O[C@H]4CCN(C(=O)C5COCCO5)C4)cc32)cnc1S(C)(=O)=O` (single isomer, unassigned) [Example H4], the negative logarithm of the IC50 (pIC50) in experiment [1] is 7.96; in experiment [2], 6.07.

With `COc1cc(N2CCOc3ccc(O[C@H]4CCN(C(=O)C5COCCO5)C4)cc32)cnc1OC` (single isomer, unassigned) [Example H5], the pIC50 in experiment [1] was 7.96; in experiment [2], 6.32.

For the compound `COc1cc(N2CCOc3ccc(O[C@H]4CCN(C(=O)C5COCCO5)C4)cc32)cnc1OC` (single isomer, unassigned) [Example H6], the negative-log IC50 (pIC50) was 7.28 in experiment [1] and 6.07 in experiment [2].

As to `COc1cc(N2CCOc3ccc(O[C@H]4CCN(C(=O)C5CCS(=O)(=O)C5)C4)cc32)cnc1OC` (single isomer, unassigned) [Example H9], the negative-log IC50 (pIC50) in experiment [1] was 7.96; in experiment [2], 6.21.

On to `COc1cc(N2CCOc3ccc(O[C@H]4CCN(C(=O)C5CCS(=O)(=O)C5)C4)cc32)cnc1OC` (single isomer, unassigned) [Example H10], for which the pIC50 in experiment [1] is 7.74; in experiment [2] it was 6.14.

As for `COc1ncc(N2CCOc3ccc(O[C@H]4CCN(C(=O)C5CCS(=O)(=O)C5)C4)cc32)cc1F` (single isomer, unassigned) [Example H11], the negative logarithm of the IC50 (pIC50) in experiment [1] was 8.10; in experiment [2], 6.52.

On to `COc1ncc(N2CCOc3ccc(O[C@H]4CCN(C(=O)C5CCS(=O)(=O)C5)C4)cc32)cc1F` (single isomer, unassigned) [Example H12], for which the negative logarithm of the IC50 (pIC50) is 8.15 in experiment [1] and 6.28 in experiment [2].

As to `COc1ncc(N2CCOc3ccc(O[C@H]4CCN(C(=O)C5CCS(=O)(=O)C5)C4)cc32)cc1Cl` (single isomer, unassigned) [Example H13], the negative logarithm of the IC50 (pIC50) is 8.05 in experiment [1] and 6.41 in experiment [2].

Consider `COc1ncc(N2CCOc3ccc(O[C@H]4CCN(C(=O)C5CCS(=O)(=O)C5)C4)cc32)cc1Cl` (single isomer, unassigned) [Example H14], for which the values for the pIC50 in experiment [1] and in experiment [2] were 8.30 and 6.99, respectively.

Regarding `COc1ncc(N2CCOc3ccc(O[C@H]4CCN(C(=O)C5COCCO5)C4)cc32)cc1F` (single isomer, unassigned) [Example H15], the pIC50 was 8.10 in experiment [1] and 6.14 in experiment [2].

`Cc1ncc(N2CCOc3ccc(O[C@H]4CCN(C(=O)C5CCOCC5)C4)cc32)cc1[N+](=O)[O-]` [Example A4, {(S)-3-[4-(6-Methyl-5-nitro-pyridin-3-yl)-3,4-dihydro-2H-benzo[1,4]oxazin-6-yloxy]-pyrrolidin-1-yl}-(tetrahydro-pyran-4-yl)-methanone] showed a pIC50 in experiment [2] below 5.04.

Regarding `COCc1ccc(N2CCOc3ccc(O[C@H]4CCN(C(=O)C5CCOCC5)C4)cc32)cn1` [Example A20, {(S)-3-[4-(6-Methoxymethyl-pyridin-3-yl)-3,4-dihydro-2H-benzo[1,4]oxazin-6-yloxy]-pyrrolidin-1-yl}-(tetrahydro-pyran-4-yl)-methanone], the pIC50 in experiment [2] was below 5.04.

The compound `O=C(C1CCOCC1)N1CC[C@H](Oc2ccc3c(c2)N(c2ccnc(C(F)(F)F)c2)CCO3)C1` [Example A21, (Tetrahydro-pyran-4-yl)-{(S)-3-[4-(2-trifluoromethyl-pyridin-4-yl)-3,4-dihydro-2H-benzo[1,4]oxazin-6-yloxy]-pyrrolidin-1-yl}-methanone] showed a pIC50 in experiment [2] of 5.07.

On to `CCC(=O)N1CC[C@H](Oc2ccc3c(c2)N(c2ccc(OC)c(S(=O)(=O)N4CCOCC4)c2)CCO3)C1` [Example A25, 1-((S)-3-{4-[4-Methoxy-3-(morpholine-4-sulfonyl)-phenyl]-3,4-dihydro-2H-benzo[1,4]oxazin-6-yloxy}-pyrrolidin-1-yl)-propan-1-one], for which the negative logarithm of the IC50 (pIC50) in experiment [2] was 5.24.

Consider `CCC(=O)N1CC[C@H](Oc2ccc3c(c2)N(c2ccc(OC)c(S(=O)(=O)N4CCN(C)CC4)c2)CCO3)C1` [Example A27, 1-((S)-3-{4-[4-Methoxy-3-(4-methyl-piperazine-1-sulfonyl)-phenyl]-3,4-dihydro-2H-benzo[1,4]oxazin-6-yloxy}-pyrrolidin-1-yl)-propan-1-one], for which the pIC50 in experiment [2] was below 5.04.

`CCC(=O)N1CC[C@H](Oc2ccc3c(c2)N(c2ccnc(C#N)c2)CCO3)C1` [Example B3, 4-[6-((S)-1-Propionyl-pyrrolidin-3-yloxy)-2,3-dihydro-benzo[1,4]oxazin-4-yl]-pyridine-2-carbonitrile] had a pIC50 in experiment [2] below 5.04.

In turn, `[2H]C1([2H])COc2ccc(O[C@H]3CCN(C(=O)c4cn(C)cn4)C3)cc2N1c1cnc(OC)c(C#N)c1` [Example B30, 2-Methoxy-5-{6-[(S)-1-(1-methyl-1H-imidazole-4-carbonyl)-pyrrolidin-3-yloxy]-3,3-dideutero-2,3-dihydro-benzo[1,4]oxazin-4-yl}-nicotinonitrile] had a pIC50 in experiment [1] of 7.81.

For `CN(C)c1cc(N2CCOc3ccc(O[C@H]4CCN(C(=O)C5CCOCC5)C4)cc32)cnc1S(C)(=O)=O` [Example B78, {(S)-3-[4-(5-Dimethylamino-6-methanesulfonyl-pyridin-3-yl)-3,4-dihydro-2H-benzo[1,4]oxazin-6-yloxy]-pyrrolidin-1-yl}-(tetrahydro-pyran-4-yl)-methanone], in experiment [2], the negative-log IC50 (pIC50) was 6.61.

In experiment [2], `COc1ncc(N2CCOc3ccc(O[C@H]4CCN(C(=O)c5cnon5)C4)cc32)cc1C#N` [Example C7, 5-{6-[(S)-1-(Furazan-3-carbonyl)-pyrrolidin-3-yloxy]-2,3-dihydro-benzo[1,4]oxazin-4-yl}-2-methoxy-nicotinonitrile] gave a pIC50 below 5.04.

Consider `COc1ncc(N2CCOc3ccc(O[C@H]4CCN(C(=O)C5CCOCC5)C4)cc32)cc1C#N` [Example D4, 2-Methoxy-5-{6-[(S)-1-(tetrahydro-pyran-4-carbonyl)-pyrrolidin-3-yloxy]-2,3-dihydro-benzo[1,4]oxazin-4-yl}-nicotinonitrile], for which the negative logarithm of the IC50 (pIC50) in experiment [2] is 6.63.

For `COc1ncc(N2CCOc3ccc(O[C@H]4CCN(C(=O)CN5CCOCC5)C4)cc32)cc1C#N` [Example D7, 2-Methoxy-5-{6-[(S)-1-(2-morpholin-4-yl-acetyl)-pyrrolidin-3-yloxy]-2,3-dihydro-benzo[1,4]oxazin-4-yl}-nicotinonitrile], the pIC50 in experiment [2] was 6.63.

As to `COc1ncc(N2CCOc3ccc(O[C@H]4CCN(C(=O)C5CCN(C)CC5)C4)cc32)cc1C#N` [Example D14, 2-Methoxy-5-{6-[(S)-1-(1-methyl-piperidine-4-carbonyl)-pyrrolidin-3-yloxy]-2,3-dihydro-benzo[1,4]oxazin-4-yl}-nicotinonitrile], in experiment [2], the pIC50 was 6.38.

Consider `COc1ncc(N2CCOc3ccc(N[C@H]4CCN(C(=O)C5CCOCC5)C4)cc32)cc1C#N` [Y, 2-Methoxy-5-{6-[(S)-1-(tetrahydro-pyran-4-carbonyl)-pyrrolidin-3-ylamino]-2,3-dihydro-benzo[1,4]oxazin-4-yl}-nicotinonitrile], for which, in experiment [2], the negative logarithm of the IC50 (pIC50) is 5.72.
